# Laboratory results as given in patent publication US20260226048A1, “MULTI-CYCLIC IRAK AND FLT3 INHIBITING COMPOUNDS AND USES THEREOF” (CHILDREN'S HOSPITAL MEDICAL CENTER, priority 2023, published 2026).
# Like-named read-outs stand apart in the source and are kept apart here.
# Columns and labels:
# [1] = system: NF-κB-inducible SEAP reporter in THP-1-Blue NF-κB cells; test: NF-kB SEAP reporter assay in THP-1-Blue NF-κB cells; type: cell-based; settings: 24 hours
# How it was run: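 Cells (1×10^5/well) stimulated with Pam3CSK4 (1 ng/mL) or hIL1B (1 ng/mL), then after 10-20 min given 10-point 1:10 compound dilutions from 1 μM or 3 μM for 24 h at 37° C. Secreted SEAP in supernatant read with QUANTI-Blue (30-60 min, 37° C) at 620 nm.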
# FLT3 = target: T1, FLT3 (Homo sapiens, UniProt P36888); test: Reaction Biology NanoBRET target engagement assay in HEK-293 cells, FLT3; type: cell-based; settings: live HEK-293 cells transfected with Kinase-NanoLuc fusion, 1 hour
# T1 sequence (P36888 27-993): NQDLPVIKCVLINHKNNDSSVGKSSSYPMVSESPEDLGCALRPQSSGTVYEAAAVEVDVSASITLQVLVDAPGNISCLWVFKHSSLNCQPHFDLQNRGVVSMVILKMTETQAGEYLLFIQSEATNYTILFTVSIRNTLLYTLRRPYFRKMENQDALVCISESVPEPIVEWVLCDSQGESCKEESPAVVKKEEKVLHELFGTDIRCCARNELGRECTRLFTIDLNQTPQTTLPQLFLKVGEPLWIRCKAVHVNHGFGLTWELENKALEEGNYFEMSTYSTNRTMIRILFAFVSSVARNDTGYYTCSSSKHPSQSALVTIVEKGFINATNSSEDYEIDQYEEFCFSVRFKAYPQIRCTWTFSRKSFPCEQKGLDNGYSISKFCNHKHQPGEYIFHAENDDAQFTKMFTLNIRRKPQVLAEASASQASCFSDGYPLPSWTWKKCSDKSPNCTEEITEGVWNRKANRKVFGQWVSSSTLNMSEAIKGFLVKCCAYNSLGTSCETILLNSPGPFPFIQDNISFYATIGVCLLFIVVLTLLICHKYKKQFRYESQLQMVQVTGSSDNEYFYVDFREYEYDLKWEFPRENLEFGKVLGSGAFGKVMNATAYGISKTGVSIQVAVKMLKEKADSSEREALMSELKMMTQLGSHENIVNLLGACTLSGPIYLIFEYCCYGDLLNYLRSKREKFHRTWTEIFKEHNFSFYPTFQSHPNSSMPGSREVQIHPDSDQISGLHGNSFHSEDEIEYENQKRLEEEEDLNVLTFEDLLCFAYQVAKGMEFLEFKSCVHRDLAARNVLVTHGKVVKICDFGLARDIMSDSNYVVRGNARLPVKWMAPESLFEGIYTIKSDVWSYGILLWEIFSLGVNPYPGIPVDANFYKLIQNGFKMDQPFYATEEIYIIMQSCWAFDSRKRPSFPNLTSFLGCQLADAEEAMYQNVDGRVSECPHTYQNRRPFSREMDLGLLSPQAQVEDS
# Description: The NanoBRET assay measures kinase engagement in real time in the context of the intact cell. Unlike the previously described biochemical kinase assay methodology in Example 33, the NanoBRET assay measures the binding and activity characteristics under equilibrium conditions using full-length kinases in the presence of cellular concentrations of ATP in live, uncompromised cells. As such, the assay provides a more relevant assessment of kinase potency and selectivity that would be expected to be observed in the native cellular environment, where potency is often considerably lower than that observed in the isolated biochemical assays (Vasta, J. D. et al., (2018) Cell Chem. Biol. 25, 206-214). The assay uses a Kinase-NanoLuc® fusion vector expressing a kinase protein to which a luciferase tag has been added, a cell-permeant fluorescent NanoBRET™ tracer, a NanoLuc® substrate, and an extracellular NanoLuc® inhibitor. Upon expression of the luciferase-tagged kinase, cells will produce a strong BRET signal only in the presence of the NanoBRET™ tracer. The extracellular NanoLuc® inhibitor ensures that the BRET signal observed emanates only from live cells. Because the BRET signal has tight distance constraints, addition of the test compound will decrease the BRET signal if the compound competes with the NanoBRET™ tracer for binding to the kinase domain. Under the appropriate tracer conditions established by the manufacturer, quantitative intracellular affinity and relative potency can then be determined using Mass Action model equations.
# HEK-293 cells were purchased from ATCC. FuGENEHD Transfection Reagent, Kinase-NanoLucfusion plasmids, Transfection Carrier DNA, NanoBRETTracers and dilution buffer, NanoBRETNano-Glo Substrate, Extracellular NanoLucInhibitor were obtained from Promega.
# Assays were conducted following Promega assay protocol with some modifications. HEK-293 Cells were transiently transfected with Kinase-NanoLucFusion Vector DNA by FuGENEHD Transfection Reagent. Testing compounds were delivered into 384 well assay plate by Echo 550 (LabcyteInc, Sunnyvale, CA). Transfected cells were harvested and mixed with NanoBRETTracer Reagent and dispensed into 384 well plates and incubated at 37° C. in 5% C02 cell culture incubator for 1 hour. The NanoBRETNano-Glo Substrate plus Extracellular NanoLucInhibitor Solution were added into the wells of the assay plate and incubated for 2-3 minutes at room temperature. The donor emission wavelength (460 nm) and acceptor emission wavelength (600 nm) were measured in the EnVisionplate reader. The BRET Ratios were calculated. BRET Ratio=[(Acceptor sample÷Donor sample)−(Acceptor no-tracer control÷Donor no-tracer control)]. The IC50 values of compounds were calculated with Prism GraphPad program.
# • 1). Cultivate HEK-293 cells (70-80% confluence) appropriately prior to assay. Trypsinize and collect HEK-293 cells. • 2). Prepare lipid: DNA complexes as follows: • a. Prepare a 10 μg/ml solution of DNA in Opti-MEM without serum that consists of the following ratios of carrier DNA and DNA encoding NanoLuc® fusion. 9.0 μg/mL of Transfection Carrier DNA, 1.0 μg/mL of NanoLuc fusion vector DNA and 1 mL of Opti-MEM without phenol red. Mix thoroughly. • b. Add 30 μl of FuGENE HD Transfection Reagent into each milliliter of DNA mixture to form lipid: DNA complex. • c. Mix by inversion 10 times. • d. Incubate at ambient temperature for 20 minutes to allow complexes to form. • 3). In a sterile, conical tube, mix 1 part of lipid:DNA complex with 20 parts of HEK-293 cells in suspension. Mix gently by inversion 5 times. • 4). Dispense cells+lipid:DNA complex into a sterile tissue culture dish and incubate for 22-24 hours.
# Each test compound is delivered from the compound source plate to the wells of 384-well white NBS plate by Echo 550.
# 3. Preparation of Cells with NanoBRET™ Tracer Reagent • 1). […]
smiles,measurement,setting,value
"COc1cc2ncc(-c3ccnc(N[C@H]4CNCC[C@@H]4F)n3)n2nc1C1CCC1 [Compound 79a, 4-(6-cyclobutyl-7-methoxyimidazo[1,2-b]pyridazin-3-yl)-N-((3S,4S)-4-fluoropiperidin-3-yl)pyrimidin-2-amine]",IC50,"[1]; THP-1-Blue NF-κB cells stimulated with Pam3CSK4 (1 ng/mL), read-out: NF-κB Pam3SCK4 IC50",340 nM
same,IC50,"[1]; THP-1-Blue NF-κB cells stimulated with hIL1B (1 ng/mL), read-out: NF-κB IL1B IC50",271 nM
same,IC50,FLT3,< 0.5 nM
